Calls of active or inactive are those of the source. The calls are words filed in the database; no cut-off is given here.
Key:
[1] = tested on: HeLa; test: Induction of apoptosis in human HeLa cells assessed as necrotic cells at 4 uM after 24 hrs by Annexin V/propidium iodide based flow cytometric analysis (reference value: 0.441 %); assay type: functional
[2] = tested on: HeLa; test: Induction of apoptosis in human HeLa cells assessed as early apoptotic cells at 8 uM after 24 hrs by Annexin V/propidium iodide based flow cytometric analysis (reference value: 0.902 %); assay type: functional
[3] = molecular target: Prostaglandin G/H synthase 1 (Homo sapiens, UniProt P23219); test: Inhibition of human COX1 using arachidonic acid assessed as production of PGF2alpha after 5 mins by ELISA
Sequence of Prostaglandin G/H synthase 1 (P23219 whole entry): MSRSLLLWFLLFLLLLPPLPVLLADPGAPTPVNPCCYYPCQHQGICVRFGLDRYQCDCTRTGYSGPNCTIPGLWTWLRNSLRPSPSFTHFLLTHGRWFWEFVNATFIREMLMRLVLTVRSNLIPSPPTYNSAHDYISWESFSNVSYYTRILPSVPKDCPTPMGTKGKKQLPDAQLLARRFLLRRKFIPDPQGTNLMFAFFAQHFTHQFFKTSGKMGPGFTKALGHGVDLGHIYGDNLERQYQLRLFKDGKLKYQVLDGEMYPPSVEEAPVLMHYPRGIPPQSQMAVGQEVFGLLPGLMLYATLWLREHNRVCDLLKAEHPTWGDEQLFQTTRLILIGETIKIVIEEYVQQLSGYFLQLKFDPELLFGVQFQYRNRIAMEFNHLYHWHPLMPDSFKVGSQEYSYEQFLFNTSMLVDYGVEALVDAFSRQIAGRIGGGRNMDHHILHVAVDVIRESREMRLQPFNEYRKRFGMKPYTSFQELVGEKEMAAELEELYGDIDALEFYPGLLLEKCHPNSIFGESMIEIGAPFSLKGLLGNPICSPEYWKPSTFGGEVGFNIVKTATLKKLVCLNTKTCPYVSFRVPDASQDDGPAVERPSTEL

[4] = tested on: HeLa; test: Induction of apoptosis in human HeLa cells assessed as viable cells at 1 uM after 24 hrs by Annexin V/propidium iodide based flow cytometric analysis (reference value: 95.5 %); assay type: functional; conditions: read-out: Activity
[5] = tested on: HeLa; test: Induction of apoptosis in human HeLa cells assessed as early apoptotic cells at 1 uM after 24 hrs by Annexin V/propidium iodide based flow cytometric analysis (reference value: 0.902 %); assay type: functional
[6] = tested on: HeLa; test: Induction of apoptosis in human HeLa cells assessed as late apoptotic cells at 1 uM after 24 hrs by Annexin V/propidium iodide based flow cytometric analysis (reference value: 3.16 %); assay type: functional
[7] = tested on: HeLa; test: Induction of apoptosis in human HeLa cells assessed as viable cells at 2 uM after 24 hrs by Annexin V/propidium iodide based flow cytometric analysis (reference value: 95.5 %); assay type: functional; conditions: read-out: Activity
[8] = tested on: HeLa; test: Induction of apoptosis in human HeLa cells assessed as necrotic cells at 1 uM after 24 hrs by Annexin V/propidium iodide based flow cytometric analysis (reference value: 0.441 %); assay type: functional
[9] = tested on: HeLa; test: Induction of apoptosis in human HeLa cells assessed as early apoptotic cells at 2 uM after 24 hrs by Annexin V/propidium iodide based flow cytometric analysis (reference value: 0.902 %); assay type: functional
[10] = tested on: HeLa; test: Induction of apoptosis in human HeLa cells assessed as late apoptotic cells at 2 uM after 24 hrs by Annexin V/propidium iodide based flow cytometric analysis (reference value: 3.16 %); assay type: functional
[11] = tested on: HeLa; test: Induction of apoptosis in human HeLa cells assessed as necrotic cells at 2 uM after 24 hrs by Annexin V/propidium iodide based flow cytometric analysis (reference value: 0.441 %); assay type: functional
[12] = tested on: HeLa; test: Induction of apoptosis in human HeLa cells assessed as viable cells at 4 uM after 24 hrs by Annexin V/propidium iodide based flow cytometric analysis (reference value: 95.5 %); assay type: functional; conditions: read-out: Activity
[13] = tested on: HeLa; test: Induction of apoptosis in human HeLa cells assessed as early apoptotic cells at 4 uM after 24 hrs by Annexin V/propidium iodide based flow cytometric analysis (reference value: 0.902 %); assay type: functional
[14] = tested on: HeLa; test: Induction of apoptosis in human HeLa cells assessed as late apoptotic cells at 4 uM after 24 hrs by Annexin V/propidium iodide based flow cytometric analysis (reference value: 3.16 %); assay type: functional
[15] = tested on: HeLa; test: Induction of apoptosis in human HeLa cells assessed as viable cells at 8 uM after 24 hrs by Annexin V/propidium iodide based flow cytometric analysis (reference value: 95.5 %); assay type: functional; conditions: read-out: Activity
[16] = tested on: HeLa; test: Induction of apoptosis in human HeLa cells assessed as late apoptotic cells at 8 uM after 24 hrs by Annexin V/propidium iodide based flow cytometric analysis (reference value: 3.16 %); assay type: functional
[17] = tested on: HeLa; test: Induction of apoptosis in human HeLa cells assessed as necrotic cells at 8 uM after 24 hrs by Annexin V/propidium iodide based flow cytometric analysis (reference value: 0.441 %); assay type: functional
[18] = tested on: HeLa; test: Induction of apoptosis in human HeLa cells assessed as viable cells at 3 uM after 12 hrs by Annexin V/propidium iodide based flow cytometric analysis (reference value: 96 %); assay type: functional; conditions: read-out: Activity
[19] = tested on: HeLa; test: Induction of apoptosis in human HeLa cells assessed as early apoptotic cells at 3 uM after 12 hrs by Annexin V/propidium iodide based flow cytometric analysis (reference value: 1.61 %); assay type: functional
[20] = tested on: HeLa; test: Induction of apoptosis in human HeLa cells assessed as late apoptotic cells at 3 uM after 12 hrs by Annexin V/propidium iodide based flow cytometric analysis (reference value: 2.21 %); assay type: functional
[21] = tested on: HeLa; test: Induction of apoptosis in human HeLa cells assessed as necrotic cells at 3 uM after 12 hrs by Annexin V/propidium iodide based flow cytometric analysis (reference value: 0.441 %); assay type: functional
[22] = tested on: HeLa; test: Induction of apoptosis in human HeLa cells assessed as necrotic cells at 3 uM after 12 hrs by Annexin V/propidium iodide based flow cytometric analysis (reference value: 0.207 %); assay type: functional
[23] = tested on: HeLa; test: Induction of apoptosis in human HeLa cells assessed as early apoptotic cells at 3 uM after 24 hrs by Annexin V/propidium iodide based flow cytometric analysis (reference value: 1.61 %); assay type: functional
[24] = tested on: HeLa; test: Induction of apoptosis in human HeLa cells assessed as late apoptotic cells at 3 uM after 24 hrs by Annexin V/propidium iodide based flow cytometric analysis (reference value: 2.21 %); assay type: functional
[25] = tested on: HeLa; test: Induction of apoptosis in human HeLa cells assessed as viable cells at 3 uM after 24 hrs by Annexin V/propidium iodide based flow cytometric analysis (reference value: 96 %); assay type: functional; conditions: read-out: Activity
[26] = tested on: HeLa; test: Induction of apoptosis in human HeLa cells assessed as necrotic cells at 3 uM after 24 hrs by Annexin V/propidium iodide based flow cytometric analysis (reference value: 0.207 %); assay type: functional
[27] = tested on: HeLa; test: Induction of apoptosis in human HeLa cells assessed as viable cells at 3 uM after 36 hrs by Annexin V/propidium iodide based flow cytometric analysis (reference value: 96 %); assay type: functional; conditions: read-out: Activity
[28] = tested on: HeLa; test: Induction of apoptosis in human HeLa cells assessed as early apoptotic cells at 3 uM after 36 hrs by Annexin V/propidium iodide based flow cytometric analysis (reference value: 1.61 %); assay type: functional
[29] = tested on: HeLa; test: Induction of apoptosis in human HeLa cells assessed as late apoptotic cells at 3 uM after 36 hrs by Annexin V/propidium iodide based flow cytometric analysis (reference value: 2.21 %); assay type: functional
[30] = tested on: HeLa; test: Induction of apoptosis in human HeLa cells assessed as necrotic cells at 3 uM after 36 hrs by Annexin V/propidium iodide based flow cytometric analysis (reference value: 0.207 %); assay type: functional
[31] = tested on: HeLa; test: Inhibition of cell adhesion in human HeLa cells assessed as reduction in cell attachment at 2 uM after 1 hr by MTT assay; assay type: functional
[32] = tested on: HeLa; test: Inhibition of cell adhesion in human HeLa cells assessed as reduction in cell attachment after 1 hr by MTT assay; assay type: functional, cell-based
[33] = tested on: HeLa; test: Reduction in cell migration in human HeLa cells up to 4 uM by transwell migration assay; assay type: functional, cell-based
[34] = tested on: HeLa; test: Reduction in cell invasion in human HeLa cells up to 4 uM by transwell invasion assay; assay type: functional, cell-based
[35] = tested on: HeLa; test: Inhibition of PGE2 secretion in human HeLa cells at 0.1 uM after 24 hrs by EIA monoclonal assay; assay type: functional, cell-based
[36] = tested on: HeLa; test: Antiproliferative activity in PGE2-induced human HeLa cells at 2 uM after 12 to 24 hrs by MTT assay; assay type: functional, cell-based
[37] = tested on: HeLa; test: Induction of apoptosis in PGE2-induced human HeLa cells assessed as viable cells at 3 uM after 24 hrs by Annexin V/propidium iodide based flow cytometric analysis; assay type: functional, cell-based
[38] = tested on: HeLa; test: Induction of apoptosis in PGE2-induced human HeLa cells assessed as early apoptotic cells at 3 uM after 24 hrs by Annexin V/propidium iodide based flow cytometric analysis; assay type: functional, cell-based
[39] = tested on: HeLa; test: Induction of apoptosis in PGE2-induced human HeLa cells assessed as late apoptotic cells at 3 uM after 24 hrs by Annexin V/propidium iodide based flow cytometric analysis; assay type: functional, cell-based
[40] = tested on: HeLa; test: Induction of apoptosis in PGE2-induced human HeLa cells assessed as necrotic cells at 3 uM after 24 hrs by Annexin V/propidium iodide based flow cytometric analysis; assay type: functional, cell-based
[41] = tested on: HeLa; test: Reduction in cell migration in PGE2-induced human HeLa cells at 2 uM by transwell migration assay; assay type: functional, cell-based
[42] = tested on: HeLa; test: Reduction in cell invasion in PGE2-induced human HeLa cells at 2 uM by transwell invasion assay; assay type: functional, cell-based
[43] = tested on: HeLa; test: Inhibition of cell adhesion in PGE2-induced human HeLa cells assessed as reduction in cell attachment at 2 uM after 12 hrs by MTT assay; assay type: functional, cell-based
[44] = tested on: HeLa; test: cells; conditions: Homo sapiens, 24 h
Description: Antiproliferative activity against human HeLa cells after 24 hrs by MTT assay

[45] = tested on: HepG2; test: cells; conditions: Homo sapiens, HepG2, 24 h
Description: Antiproliferative activity against human HepG2 cells after 24 hrs by MTT assay

[46] = cells; conditions: Mus musculus, B16-F10, 24 h
Description: Antiproliferative activity against mouse B16F10 cells after 24 hrs by MTT assay

[47] = tested on: A549; test: cells; conditions: Homo sapiens, A549, 24 h
Description: Antiproliferative activity against human A549 cells after 24 hrs by MTT assay

[48] = cells; conditions: Homo sapiens, HEK-293T, 24 h
Description: Antiproliferative activity against human 293T cells after 24 hrs by MTT assay

[49] = cells; conditions: Homo sapiens, L02, 24 h
Description: Antiproliferative activity against human LO2 cells after 24 hrs by MTT assay

Q: With `NS(=O)(=O)c1ccc(-n2nc(C(=O)N/N=C/c3c(Cl)c4ccccc4oc3=O)cc2-c2ccc(C(F)(F)F)cc2)cc1` as the compound, how does the Activity [1] read?
A: 2.14%

Q: What about the Activity [2] of the same compound?
A: 33.6%

Q: What about the IC50 [3] of the same compound?
A: 48200 nM

Q: And the viability at 1 µM [4]?
A: 94%

Q: What about the Activity [5] of the same compound?
A: 2.12%

Q: And the Activity [6]?
A: 3.58%

Q: And the viability at 2 µM [7]?
A: 85.9%

Q: What about the Activity [8] of the same compound?
A: 0.301%

Q: What about the Activity [9] of the same compound?
A: 7.64%

Q: And the Activity [10]?
A: 6.29%

Q: What about the Activity [11] of the same compound?
A: 0.143%

Q: And the viability at 4 µM [12]?
A: 62%

Q: And the Activity [13]?
A: 24.8%

Q: What about the Activity [14] of the same compound?
A: 11%

Q: And the viability at 8 µM [15]?
A: 49%

Q: And the Activity [16]?
A: 15.6%

Q: And the Activity [17]?
A: 1.82%

Q: What about the viability at 3 µM [18] of the same compound?
A: 92.9%

Q: And the Activity [19]?
A: 3.79%

Q: And the Activity [20]?
A: 3.02%

Q: What about the Activity [21] of the same compound?
A: 0.276%

Q: And the Activity [22]?
A: 0.276%

Q: And the Activity [23]?
A: 14.8%

Q: And the Activity [24]?
A: 8.83%

Q: What about the viability at 3 µM [25] of the same compound?
A: 76.3%

Q: And the Activity [26]?
A: 0.049%

Q: And the viability at 3 µM [27]?
A: 66.6%

Q: What about the Activity [28] of the same compound?
A: 21.6%

Q: And the Activity [29]?
A: 10.2%

Q: What about the Activity [30] of the same compound?
A: 1.62%

Q: And the inhibition at 2 µM [31]?
A: 60%

Q: What about the inhibition [32] of the same compound?
A: Dose-dependent effect

Q: And the Activity [33]?
A: Dose-dependent effect

Q: And the Activity [34]?
A: Active

Q: And the inhibition [35]?
A: Active

Q: And the Activity [36]?
A: Active

Q: What about the Activity [37] of the same compound?
A: Active

Q: And the Activity [38]?
A: Active

Q: What about the Activity [39] of the same compound?
A: Active

Q: And the Activity [40]?
A: Active

Q: What about the Activity [41] of the same compound?
A: Active

Q: And the Activity [42]?
A: Active

Q: What about the inhibition [43] of the same compound?
A: Active

Q: What about the IC50 [44] of the same compound?
A: 360 nM

Q: And the IC50 [45]?
A: 850 nM

Q: What about the IC50 [46] of the same compound?
A: 2270 nM

Q: And the IC50 [47]?
A: 2560 nM

Q: What about the IC50 [48] of the same compound?
A: 234000 nM

Q: And the IC50 [49]?
A: 267000 nM

— ChEMBL document CHEMBL3822383, “Coumarin sulfonamides derivatives as potent and selective COX-2 inhibitors with efficacy in suppressing cancer proliferation and metastasis” (Bioorg Med Chem Lett, 2016)
